Several values for one entry are separate records, joined by “and”; a condition that tells them apart may be missing. Identical values can stand only once. Like-named read-outs stand apart in the source and are kept apart here.
Tests used:
H1 receptors = H1 receptors (Homo sapiens, UniProt P35367); experiment: Ligand binding screen at 10 μM
M2 receptors = M2 receptors (Homo sapiens, UniProt P08172); experiment: Ligand binding screen at 10 μM
5HT3 receptors = 5HT3 receptors (Homo sapiens, UniProt P46098); experiment: Ligand binding screen at 10 μM
Chain of 5HT3 receptors (P46098 24-478): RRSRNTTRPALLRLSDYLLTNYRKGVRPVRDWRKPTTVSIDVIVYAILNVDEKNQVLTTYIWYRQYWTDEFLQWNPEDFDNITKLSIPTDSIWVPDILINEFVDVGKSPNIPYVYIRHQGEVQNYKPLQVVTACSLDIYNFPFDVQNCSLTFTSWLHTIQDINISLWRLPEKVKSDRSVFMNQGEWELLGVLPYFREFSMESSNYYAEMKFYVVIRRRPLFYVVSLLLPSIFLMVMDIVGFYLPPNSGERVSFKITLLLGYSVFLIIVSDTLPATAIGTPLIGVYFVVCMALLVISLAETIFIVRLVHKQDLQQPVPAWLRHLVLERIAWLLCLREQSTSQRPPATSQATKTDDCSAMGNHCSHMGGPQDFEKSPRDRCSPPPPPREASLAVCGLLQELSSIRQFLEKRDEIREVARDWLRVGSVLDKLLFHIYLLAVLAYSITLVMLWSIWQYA

[1] = Pharmacokinetics after i.v. or oral dose in dogs; assay type: in vivo, beagle dogs; settings: dog; for concentration at 2 min / concentration at 5 min / concentration at 10 min / concentration at 30 min / concentration at 60 min / concentration at 120 min / concentration at 180 min / concentration at 240 min / concentration at 360 min: plasma; for bioavailability: NDMC p.o. 10 mg/kg vs i.v. 1 mg/kg, read-out: BA (oral bioavailability)
[2] = Serum levels during clozapine treatment of schizophrenic patients; assay type: in vivo, human
Procedure: The analysis was adjusted for baseline level of symptom severity, age, and dose, since dose was not fixed. […] Regarding co-treatment with anticholinergic agents, only two subjects in this sample were treated with benztropine. […] Lastly, ten of the patients in this study were treated with benzodiazepines at the time the levels of clozapine and NDMC were measured.
Patients were classified as treatment resistant or not by standard criteria (Kane et al 1988), and clinical ratings and neuropsychological test scores were obtained by trained raters who were blinded to plasma drug levels.

[3] = target: T1, α1A (Alpha 1A) adrenergic receptor (Homo sapiens, UniProt P35348); settings: R-SAT; nr = no significant antagonist or inverse agonist activity up to 1 μM; nr* = nr but significant agonist activity
T1 sequence (P35348 1-466): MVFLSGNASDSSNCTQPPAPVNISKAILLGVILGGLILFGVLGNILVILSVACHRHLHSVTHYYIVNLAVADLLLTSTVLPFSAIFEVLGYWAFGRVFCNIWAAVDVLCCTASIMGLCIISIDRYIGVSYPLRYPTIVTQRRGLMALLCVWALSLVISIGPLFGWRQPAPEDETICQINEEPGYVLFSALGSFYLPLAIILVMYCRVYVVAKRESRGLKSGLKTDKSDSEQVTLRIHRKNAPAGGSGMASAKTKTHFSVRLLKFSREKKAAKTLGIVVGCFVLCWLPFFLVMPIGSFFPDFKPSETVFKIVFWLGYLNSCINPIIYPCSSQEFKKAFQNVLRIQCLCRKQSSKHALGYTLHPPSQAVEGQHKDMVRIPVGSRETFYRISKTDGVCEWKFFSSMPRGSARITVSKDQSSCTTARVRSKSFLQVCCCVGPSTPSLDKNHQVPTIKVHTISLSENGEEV

M1 muscarinic receptor = target: T2, M1 muscarinic receptor (Homo sapiens, UniProt P11229)
T2 sequence (P11229 1-460): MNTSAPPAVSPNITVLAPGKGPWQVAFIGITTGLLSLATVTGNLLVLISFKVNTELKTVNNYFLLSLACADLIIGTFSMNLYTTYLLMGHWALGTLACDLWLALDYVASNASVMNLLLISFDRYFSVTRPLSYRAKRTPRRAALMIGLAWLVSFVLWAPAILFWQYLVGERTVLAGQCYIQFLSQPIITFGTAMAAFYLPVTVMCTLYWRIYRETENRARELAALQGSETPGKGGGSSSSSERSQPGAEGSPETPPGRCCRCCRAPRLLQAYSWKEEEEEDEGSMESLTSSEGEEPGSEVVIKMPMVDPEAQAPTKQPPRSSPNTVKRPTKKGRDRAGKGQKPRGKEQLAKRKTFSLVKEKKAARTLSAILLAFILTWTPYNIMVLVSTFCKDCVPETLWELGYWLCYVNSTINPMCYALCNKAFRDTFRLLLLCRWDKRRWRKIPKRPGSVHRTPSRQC

M2 muscarinic receptor = target: T3, M2 muscarinic receptor (Homo sapiens, UniProt P08172); experiment: R-SAT agonist assay
T3 sequence (P08172 1-466): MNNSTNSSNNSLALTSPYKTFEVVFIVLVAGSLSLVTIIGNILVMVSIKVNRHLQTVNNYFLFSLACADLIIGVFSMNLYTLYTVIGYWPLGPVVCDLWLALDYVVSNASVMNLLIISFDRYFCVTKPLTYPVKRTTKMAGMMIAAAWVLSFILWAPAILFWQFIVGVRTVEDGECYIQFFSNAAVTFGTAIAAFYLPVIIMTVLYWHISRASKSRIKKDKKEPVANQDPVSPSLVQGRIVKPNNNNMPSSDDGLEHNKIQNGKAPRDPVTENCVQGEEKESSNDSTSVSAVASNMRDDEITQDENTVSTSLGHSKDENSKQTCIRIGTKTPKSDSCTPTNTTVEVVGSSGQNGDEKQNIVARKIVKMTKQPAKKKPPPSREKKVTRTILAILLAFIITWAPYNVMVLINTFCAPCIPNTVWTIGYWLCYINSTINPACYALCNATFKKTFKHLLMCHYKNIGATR

M3 muscarinic receptor = M3 muscarinic receptor (Homo sapiens, UniProt P20309); experiment: R-SAT agonist assay
Chain of M3 muscarinic receptor (P20309 whole entry): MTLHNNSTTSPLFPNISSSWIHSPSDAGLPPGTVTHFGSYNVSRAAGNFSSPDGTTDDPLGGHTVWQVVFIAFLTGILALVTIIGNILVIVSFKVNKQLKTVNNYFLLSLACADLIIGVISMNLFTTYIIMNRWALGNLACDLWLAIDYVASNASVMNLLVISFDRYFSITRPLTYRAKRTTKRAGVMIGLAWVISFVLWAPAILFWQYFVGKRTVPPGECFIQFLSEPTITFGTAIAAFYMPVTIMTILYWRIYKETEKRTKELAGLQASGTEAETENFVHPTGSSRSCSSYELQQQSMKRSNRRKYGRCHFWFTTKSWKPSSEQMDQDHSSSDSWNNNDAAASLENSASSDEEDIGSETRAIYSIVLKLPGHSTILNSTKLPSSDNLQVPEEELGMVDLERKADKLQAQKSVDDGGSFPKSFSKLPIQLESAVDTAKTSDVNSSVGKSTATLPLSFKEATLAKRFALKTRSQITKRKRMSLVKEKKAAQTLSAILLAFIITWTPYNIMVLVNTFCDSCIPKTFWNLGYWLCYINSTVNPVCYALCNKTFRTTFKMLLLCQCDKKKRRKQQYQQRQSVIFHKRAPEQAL

[4] = beagle, iv, 1 mg/kg, Plasma concentration after NDMC administration, NDMC i.v. 1 mg/kg
[5] = beagle, iv, 1 mg/kg, Plasma concentration of compound measured after clozapine administration, clozapine i.v. 1 mg/kg
[6] = beagle, po, 10 mg/kg, Plasma concentration after NDMC administration, NDMC p.o. 10 mg/kg
[7] = beagle, po, 10 mg/kg, Plasma concentration of compound measured after clozapine administration, clozapine p.o. 10 mg/kg
[8] = clozapine-treated schizophrenics
[9] = clozapine-treated treatment resistant schizophrenics
[10] = R-SAT, relative to carbachol, No response/nr = no agonist activity up to 10 μM

Chain of H1 receptors (P35367 whole entry): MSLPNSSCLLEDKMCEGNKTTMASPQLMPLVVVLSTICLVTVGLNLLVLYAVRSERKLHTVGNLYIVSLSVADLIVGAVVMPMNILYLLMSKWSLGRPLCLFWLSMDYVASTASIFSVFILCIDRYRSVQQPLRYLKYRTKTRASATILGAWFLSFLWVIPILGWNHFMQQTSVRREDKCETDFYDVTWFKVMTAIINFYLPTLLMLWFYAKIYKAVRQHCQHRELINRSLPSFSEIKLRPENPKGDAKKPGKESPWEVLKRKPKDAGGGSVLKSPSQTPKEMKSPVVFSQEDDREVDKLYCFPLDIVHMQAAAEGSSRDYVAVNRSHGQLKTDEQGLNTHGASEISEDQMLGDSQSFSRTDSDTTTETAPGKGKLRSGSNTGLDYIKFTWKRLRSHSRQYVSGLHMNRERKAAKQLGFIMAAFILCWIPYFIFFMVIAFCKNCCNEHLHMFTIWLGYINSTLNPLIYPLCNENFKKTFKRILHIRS

Which results are given for `Clc1ccc2c(c1)N=C(N1CCNCC1)c1ccccc1N2` [NDMC, 8-chloro-11-(1-piperazinyl)-5H-dibenzo [b,e][1,4] diazepine]?
inhibition at 10 µM (H1 receptors): ≥ 90%; inhibition at 10 µM (M2 receptors): ≥ 90%; inhibition at 10 µM (5HT3 receptors): ≥ 90%; concentration at 2 min [1, 4]: 0.182 µg/mL; concentration at 5 min [1, 4]: 0.073 ± 0.022 µg/mL; concentration at 10 min [1, 4]: 0.05 ± 0.01 µg/mL; concentration at 30 min [1, 4]: 0.035 ± 0.002 µg/mL; concentration at 60 min [1, 4]: 0.032 ± 0.006 µg/mL; concentration at 120 min [1, 4]: 0.028 ± 0.004 µg/mL; concentration at 180 min [1, 4]: 0.027 ± 0.007 µg/mL; concentration at 240 min [1, 4]: 0.027 ± 0.004 µg/mL; concentration at 2 min [1, 5]: 0.00054 ± 0.00012 µg/mL; concentration at 5 min [1, 5]: 0.00047 ± 6e-05 µg/mL; concentration at 10 min [1, 5]: 0.00064 ± 0.00026 µg/mL; concentration at 30 min [1, 5]: 0.00172 ± 0.00075 µg/mL; concentration at 60 min [1, 5]: 0.00355 ± 0.00103 µg/mL; concentration at 120 min [1, 5]: 0.00431 ± 0.00134 µg/mL; concentration at 180 min [1, 5]: 0.00489 ± 0.00141 µg/mL; concentration at 240 min [1, 5]: 0.00444 ± 0.00131 µg/mL; concentration at 10 min [1, 6]: 0.001 µg/mL; concentration at 30 min [1, 6]: 0.014 ± 0.012 µg/mL; concentration at 60 min [1, 6]: 0.067 ± 0.037 µg/mL; concentration at 120 min [1, 6]: 0.155 ± 0.095 µg/mL; concentration at 180 min [1, 6]: 0.249 ± 0.044 µg/mL; concentration at 240 min [1, 6]: 0.274 ± 0.044 µg/mL; concentration at 360 min [1, 6]: 0.261 µg/mL; concentration at 10 min [1, 7]: 0 µg/mL; concentration at 30 min [1, 7]: 0.00245 µg/mL; concentration at 60 min [1, 7]: 0.0254 µg/mL; concentration at 120 min [1, 7]: 0.0058 µg/mL; concentration at 180 min [1, 7]: 0.0103 µg/mL; concentration at 240 min [1, 7]: 0.0192 µg/mL; concentration at 360 min [1, 7]: 0.0467 µg/mL; AUC ([1]; beagle, serum, iv, 1 mg/kg): 0.135 ± 0.0213 µg·h/mL; Cmax ([1]; beagle, serum, iv, 1 mg/kg): 0.353 µg/mL; Vd ([1]; beagle, serum, iv, 1 mg/kg): 28.2 ± 4.92 L/kg; half-life ([1]; beagle, serum, iv, 1 mg/kg): 13.2 ± 7 h; bioavailability ([1]; beagle, serum, oral, 10 mg/kg): ~44%; AUC ([1]; beagle, serum, po, 10 mg/kg): 0.598 ± 0.112 µg·h/mL; Cmax ([1]; beagle, serum, po, 10 mg/kg): 0.286 µg/mL; Tmax ([1]; beagle, serum, po, 10 mg/kg): 3.3 ± 1.2 h; bioavailability ([1]; beagle, serum, po, 10 mg/kg): 44%; time by which Cmax was achieved ([1]; after NDMC p.o. 10 mg/kg): ≤ 3.3 h; peak NDMC levels as share of peak clozapine levels ([1]; after clozapine): approximately 16%; Serum level, All Subjects at 6 Months (92) [2, 8]: 0.235 ± 0.19 µg/mL; Serum level, All Subjects at 6 Weeks (86) [2, 8]: 0.194 ± 0.136 µg/mL; Serum level, Non-Responders (25) [2, 9]: 0.171 ± 0.123 µg/mL; Serum level, Responders (26) [2, 9]: 0.308 ± 0.243 µg/mL; Serum level, All TR Subjects (59) ([2]; clozapine-treated treatment resistant schizophrenics, drawn 12 hours after last clozapine dose): 0.26 ± 0.203 µg/mL; pKi α1A, competitive antagonist [3]: 7.3 ± 0.1; pKi, competitive antagonist (M1 muscarinic receptor; PI hydrolysis in the presence of 3-micromolar carbachol): no response; M1 % Efficacy (M1 muscarinic receptor; PI hydrolysis, relative to carbachol, listed as N-desmethylclozapine): 65 ± 10%; EC50 (M2 muscarinic receptor; M2 pEC50, R-SAT agonist): 0.339 µM and 0.316 µM; M2 Efficacy (M2 muscarinic receptor; [10]): 106 ± 19%; EC50 (M3 muscarinic receptor; M3 pEC50, R-SAT agonist): 0.324 µM and 0.316 µM; M3 Efficacy (M3 muscarinic receptor; [10]): 27 ± 4%

From patent US20050085463A1 (priority 2003, published 2005)
